Patent US9539298B2, “Lissencephaly therapeutic agent” (OSAKA CITY UNIVERSITY, priority 2010, dated 2017)

What was measured:
[1] = target: T1, μ-calpain (derived from human red blood cells) (Homo sapiens, UniProt P07384); assay: Measurement of inhibitory activity against μ-calpain; format: biochemical; settings: casein substrate, 30° C., 60 minutes; read-out: enzyme inhibitory activities (μM) μ-calpain
T1 construct: derived from human red blood cells; purchased Cosmo Bio Co., Ltd; host or cells: human red blood cells (tissue-purified)
T1 sequence (P07384 1-714): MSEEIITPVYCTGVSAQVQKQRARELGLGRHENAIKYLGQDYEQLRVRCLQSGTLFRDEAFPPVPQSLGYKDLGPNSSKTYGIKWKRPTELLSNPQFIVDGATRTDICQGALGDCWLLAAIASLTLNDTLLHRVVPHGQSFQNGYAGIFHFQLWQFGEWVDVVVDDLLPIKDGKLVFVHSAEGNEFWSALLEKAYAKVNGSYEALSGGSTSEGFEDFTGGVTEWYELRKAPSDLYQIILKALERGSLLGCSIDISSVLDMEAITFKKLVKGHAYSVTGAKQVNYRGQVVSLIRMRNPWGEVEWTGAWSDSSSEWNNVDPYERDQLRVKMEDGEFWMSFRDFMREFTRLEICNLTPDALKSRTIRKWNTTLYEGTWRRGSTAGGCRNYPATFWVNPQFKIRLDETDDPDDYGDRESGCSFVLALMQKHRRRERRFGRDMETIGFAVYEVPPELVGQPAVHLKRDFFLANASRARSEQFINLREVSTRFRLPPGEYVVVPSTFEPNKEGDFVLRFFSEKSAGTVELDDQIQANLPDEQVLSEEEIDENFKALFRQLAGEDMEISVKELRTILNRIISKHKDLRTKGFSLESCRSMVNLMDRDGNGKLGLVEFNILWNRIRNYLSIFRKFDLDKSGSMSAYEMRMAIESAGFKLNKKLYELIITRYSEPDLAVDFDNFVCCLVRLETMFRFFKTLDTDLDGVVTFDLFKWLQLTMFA
T1 sequence (P04632 1-268 partner): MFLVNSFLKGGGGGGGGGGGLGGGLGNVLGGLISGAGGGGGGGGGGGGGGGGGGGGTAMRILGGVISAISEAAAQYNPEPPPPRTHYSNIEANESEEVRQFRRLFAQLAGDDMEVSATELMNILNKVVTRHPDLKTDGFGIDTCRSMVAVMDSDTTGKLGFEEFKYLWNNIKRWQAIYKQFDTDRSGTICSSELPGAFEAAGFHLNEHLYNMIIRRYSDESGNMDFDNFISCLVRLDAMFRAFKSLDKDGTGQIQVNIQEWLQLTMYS
Description: The inhibitory activity against μ-calpain and m-calpain was assayed according to a published method (Anal. Biochem. 1993, vol. 208, p. 387-392). More specifically, 200 μL of a reaction solution containing 0.5 mg/mL casein, 50 mM Tris-HCl buffer (pH 7.4), 20 mM dithiothreitol and 1.0 nmol μ-calpain (derived from human red blood cells, Cosmo Bio Co., Ltd.) or m-calpain (derived from porcine kidney, Cosmo Bio Co., Ltd.) was added to individual 2.5 μL portions of DMSO solution containing a varying concentration of a test sample in a 96-well plate. Then, 50 μL of 20 mM aqueous calcium chloride was added thereto, and reaction was performed at 30° C. for 60 minutes. 100 μL of the reaction solution was transferred to another 96-well plate, and purified water (50 μL) and 50% aqueous solution (100 μL) of Protein Assay Dye Reagent (available from Bio-Rad Laboratories, Inc.; catalogue No. 500-600) were added thereto. The reaction mixture was allowed to stand at room temperature for 15 minutes, and its absorbance was measured at 595 nm. The absorbance of a reaction mixture prepared in the same manner as mentioned above, except that a DMSO solution containing no sample was used as a control value; and the absorbance of a reaction mixture prepared in the same manner as mentioned above, except that a 1 mM aqueous EDTA solution (50 μL) was used in place of 20 mM aqueous calcium chloride, was used as a blank value. […] Inhibition rate (%){1−(measured value−blank test value)/(control value−blank test value)}×100
The concentrations (IC50) are shown in Table 1 as enzyme (calpain) inhibitory activities (μM).

[2] = test system: LIS1 heterozygous mouse embryos; assay: LIS1 protein in mouse embryo brains after SNJ-1945 intraperitoneal administration; format: in vivo
Description: A neo(−)129S-Pafah1b1^tm2Awb/J homozygous male mouse lacking neo gene was mated with five homozygous EII-Cre transgenic female mice (FVB/N-Tg (EIIa-cre) C5379Lmgd/J, The Jackson Laboratory) by raising them in the same mouse cage. In total, six sets of mouse cages were prepared for the mating experiment. The neo(−)129S-Pafah1b1^tm2Awb/J homozygous mouse were prepared in the same manner as above. Plug check (confirmation of mating) was carried out every morning between 7 and 10 am, thereby determining the gestation cycle. SNJ-1945 was dissolved in dimethyl sulfoxide (DMSO; Sigma, D8779) at a concentration of 100 mg/ml, and intraperitoneally injected to the pregnant mice so that the administration amount became 100 μg per gram of body weight upon Day 12 of embryo period (E12) (intraperitoneal administration). To determine the effect of SNJ-1945 administration, LIS1 proteins of normal mouse embryos and those of LIS1 heterozygous mouse embryos (administered with SNJ-1945) were measured. […]
Pregnant mice were killed by cervical fracture, and the mouse embryos were immediately isolated to obtain the brain tissues. For the measurement of LIS1 protein amount, the brain weights were immediately measured as soon as the brains were removed.

COCCOCCOC(=O)N[C@@H](CC(C)C)C(=O)N[C@@H](Cc1ccccc1)C(=O)C(=O)NC1CC1 [compound 17, ((1S)-1-((((1S)-1-Benzyl-2,3-dioxo-3-(cyclopropylamino)propyl)amino)carbonyl)-3-methylbutyl)carbamic acid 5-methoxy-3-oxapentyl ester]
IC50 [1]: 0.17 µM
LIS1 protein amount in embryo brain ([2]; 100 μg per gram of body weight IP to pregnant mice, E12, FIG. 6): recovered to a substantially normal level
duration of the effect on LIS1 protein after a single dose ([2]; 100 μg/g IP to pregnant mice, E12): continued for at least three days
